Series [1] is described as follows: in vivo. The settings on record: dog, po, 5 mg/kg.
The nature of series [2]: in vivo. The settings on record: dog, po, 5 mg/kg. The source holds these as a separate data set.
Series [3] can be described thus: in vivo. The conditions noted are these: dog, plasma, po, 5 mg/kg.
Series [4] in a line: in vivo. The settings on record: dog, plasma, po, 5 mg/kg. This is another data set of the same source.
Series [5] is described as follows: in vivo. The conditions noted are these: dog, po, 5 mg/kg. The source holds these as a separate data set.

In the series “in vivo [1]”, `CS(=O)(=O)c1ccc(-n2nc(C(F)F)cc2-c2ccccc2)nc1` showed a half-life of 26 h. In addition, the Tmax in the series “in vivo [2]” is 1.5 h. In addition, the Cmax in the series “in vivo [3]” came out at 1090 ng/mL.
On to `CS(=O)(=O)c1ccc(-n2nc(C(F)F)cc2-c2ccc(F)cc2)nc1`, for which, in “in vivo [1]”, the half-life was 17 h. In addition, the Tmax in the series “in vivo [2]” came to 1.3 h. The molecule also came in with an AUC in the series “in vivo [4]” of 7650 ng·h/mL. In the series “in vivo [3]”, this molecule yielded a Cmax of 509 ng/mL. For the same molecule, the concentration at 24 h in the series “in vivo [5]” is 329 ng/mL.
In the same order, the values of `CS(=O)(=O)c1ccc(-n2nc(C(F)(F)F)cc2-c2ccc(F)cc2)nc1` are 17.5 h, 0.8 h, 4820 ng·h/mL, 540 ng/mL and 134 ng/mL.
Consider `Cc1ccc(-c2cc(C(F)(F)F)nn2-c2ccc(S(N)(=O)=O)cc2)cc1` [CELECOXIB], for which the half-life in the series “in vivo [1]” was 3.3 h. In the series “in vivo [4]”, this molecule registered an AUC of 3100 ng·h/mL. Besides, in “in vivo [3]”, the Cmax is 540 ng/mL.
For the molecule `CS(=O)(=O)c1ccc(-n2nc(C(F)(F)F)cc2-c2ccccc2)nc1`, in the series “in vivo [1]”, the half-life is 13.1 h. For the same molecule, in the series “in vivo [2]”, the Tmax was 0.8 h. The same molecule gave an AUC in “in vivo [4]” of 4280 ng·h/mL. The peak level in “in vivo [3]” (Cmax) was 611 ng/mL. Further, the concentration at 24 h in the series “in vivo [5]” came to 77 ng/mL.

For the origin of these results see ChEMBL document CHEMBL1146718, “Discovery of a potent, selective and orally active canine COX-2 inhibitor, 2-(3-difluoromethyl-5-phenyl-pyrazol-1-yl)-5-methanesulfonyl-pyridine” (Bioorg Med Chem Lett, 2004).
